Laboratory results as given in paper PMC4618636 (Pharmacology Research & Perspectives, 2015).
Where “and” joins values, the source holds several entries; their conditions need not be identical. Identical values can stand only once. Like-named read-outs stand apart in the source and are kept apart here. One block for each compound: values may come before it.

Columns and labels:
[1] = biological target: CYP3A4 (Homo sapiens, UniProt P08684); assay: in vitro; conditions: upcyte hepatocytes, probe midazolam (5 μmol/L), percentage inhibition, CYP3A4, 1′OH-MID +1′OH-MID-G, 1 mmol/L ABT, Lab 2
Chain of CYP3A4 (Homo sapiens, UniProt P08684) (P08684 whole entry): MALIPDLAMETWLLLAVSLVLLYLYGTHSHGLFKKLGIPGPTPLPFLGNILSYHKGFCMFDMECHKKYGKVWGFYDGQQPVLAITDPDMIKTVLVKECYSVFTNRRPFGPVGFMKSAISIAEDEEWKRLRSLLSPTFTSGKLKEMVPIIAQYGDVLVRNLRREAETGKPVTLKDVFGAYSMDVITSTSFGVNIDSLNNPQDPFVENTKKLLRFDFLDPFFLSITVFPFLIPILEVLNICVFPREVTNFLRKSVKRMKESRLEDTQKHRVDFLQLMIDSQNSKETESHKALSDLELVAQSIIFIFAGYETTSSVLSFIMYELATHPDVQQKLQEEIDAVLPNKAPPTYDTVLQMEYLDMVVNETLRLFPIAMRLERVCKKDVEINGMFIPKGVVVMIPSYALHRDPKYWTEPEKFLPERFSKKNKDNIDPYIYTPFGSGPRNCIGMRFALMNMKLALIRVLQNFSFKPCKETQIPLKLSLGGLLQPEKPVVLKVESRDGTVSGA

[2] = biological target: CYP2C9 (Homo sapiens, UniProt P11712); assay: CYP2C9 inhibition in upcyte hepatocytes over 24 h; format: in vitro ADME; conditions: probe tolbutamide (5 μmol/L), percentage inhibition, CYP2C9, OH-Tolb, 1 mmol/L ABT, Lab 2
Chain of CYP2C9 (P11712 whole entry): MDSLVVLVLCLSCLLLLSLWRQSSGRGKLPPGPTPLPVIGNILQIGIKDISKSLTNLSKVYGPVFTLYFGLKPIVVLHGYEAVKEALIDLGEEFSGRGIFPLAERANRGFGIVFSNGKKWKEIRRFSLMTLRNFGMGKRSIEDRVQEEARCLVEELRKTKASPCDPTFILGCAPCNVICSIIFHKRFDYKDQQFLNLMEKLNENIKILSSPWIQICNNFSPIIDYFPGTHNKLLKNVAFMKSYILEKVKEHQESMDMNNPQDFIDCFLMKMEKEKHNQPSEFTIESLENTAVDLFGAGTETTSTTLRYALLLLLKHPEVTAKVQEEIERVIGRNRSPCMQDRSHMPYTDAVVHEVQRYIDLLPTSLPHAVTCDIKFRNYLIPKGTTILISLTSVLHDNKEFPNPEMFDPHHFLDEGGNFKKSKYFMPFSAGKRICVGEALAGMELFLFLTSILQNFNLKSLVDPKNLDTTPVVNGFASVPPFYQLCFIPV

[3] = biological target: T1, CYP1A2 (Homo sapiens, UniProt P05177); assay: CYP1A2 inhibition in upcyte hepatocytes over 24 h; format: in vitro ADME; conditions: probe phenacetin (5 μmol/L), percentage inhibition, CYP1A2, APAP, 1 mmol/L ABT, Lab 2
T1 sequence (P05177 1-516): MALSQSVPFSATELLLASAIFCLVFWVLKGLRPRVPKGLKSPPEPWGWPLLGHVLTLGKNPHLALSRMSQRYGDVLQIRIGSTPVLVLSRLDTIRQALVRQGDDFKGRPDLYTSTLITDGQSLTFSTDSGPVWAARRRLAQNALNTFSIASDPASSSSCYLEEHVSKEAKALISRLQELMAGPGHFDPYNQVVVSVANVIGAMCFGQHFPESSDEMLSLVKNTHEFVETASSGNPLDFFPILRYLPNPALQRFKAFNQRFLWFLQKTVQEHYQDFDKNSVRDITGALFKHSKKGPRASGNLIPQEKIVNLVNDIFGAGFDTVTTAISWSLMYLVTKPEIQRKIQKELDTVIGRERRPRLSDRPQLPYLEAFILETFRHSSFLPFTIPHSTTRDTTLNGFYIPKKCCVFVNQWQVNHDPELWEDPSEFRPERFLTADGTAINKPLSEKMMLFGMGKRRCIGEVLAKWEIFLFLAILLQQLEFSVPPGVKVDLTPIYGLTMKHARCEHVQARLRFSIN

[4] = biological target: T2, CYP2B6 (Homo sapiens, UniProt P20813); assay: in vitro; conditions: hepatocytes, percentage inhibition, CYP2B6, OH-Bup, 1 mmol/L ABT, Lab 2
T2 sequence (P20813 1-491): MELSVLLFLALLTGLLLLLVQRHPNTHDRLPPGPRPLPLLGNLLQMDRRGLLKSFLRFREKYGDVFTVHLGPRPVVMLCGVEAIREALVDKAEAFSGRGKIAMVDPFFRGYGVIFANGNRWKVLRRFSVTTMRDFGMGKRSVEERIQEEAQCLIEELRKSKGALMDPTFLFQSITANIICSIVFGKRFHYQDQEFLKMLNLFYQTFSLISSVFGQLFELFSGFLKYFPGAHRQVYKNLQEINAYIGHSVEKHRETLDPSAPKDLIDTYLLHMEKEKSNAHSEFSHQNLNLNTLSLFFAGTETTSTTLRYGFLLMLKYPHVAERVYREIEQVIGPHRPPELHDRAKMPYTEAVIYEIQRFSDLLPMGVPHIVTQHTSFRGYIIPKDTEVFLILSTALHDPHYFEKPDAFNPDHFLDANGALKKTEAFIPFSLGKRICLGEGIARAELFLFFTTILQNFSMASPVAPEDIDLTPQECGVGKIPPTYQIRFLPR

[5] = test system: CYP3A4; conditions: for CYP3A4 RIS: mean of two experiments; for CYP3A4 % Rif: relative to positive control rifampicin, equation 2
[6] = test system: CYP3A4; conditions: in vivo induction value used for the RIS calibration; cited from earlier work
[7] = test system: CYP2B6; conditions: for CYP2B6 Indmax: mean from two experiments; for CYP2B6 % PB: relative to positive control phenobarbital, equation 2

- inhibition at 1 mmol/L ([1]; Donor 151-03, 0–6 h): 99%
- inhibition at 24 h, 1 mmol/L ([1]; Donor 151-03, 24 h): 97%
- inhibition at 1 mmol/L ([1]; Donor 422A-03, 0–6 h): 98%
- inhibition at 24 h, 1 mmol/L ([1]; Donor 422A-03, 24 h): 98%
- inhibition at 1 mmol/L ([1]; Donor 653-03, 0–6 h): 98%
- inhibition at 24 h, 1 mmol/L ([1]; Donor 653-03, 24 h): 98%
- inhibition at 1 mmol/L ([2]; Donor 151-03, 0–6 h): 100%
- inhibition at 24 h, 1 mmol/L ([2]; Donor 151-03, 24 h): 98%
- inhibition at 1 mmol/L ([2]; Donor 422A-03, 0–6 h): 100%
- inhibition at 24 h, 1 mmol/L ([2]; Donor 422A-03, 24 h): 100%
- inhibition at 1 mmol/L ([2]; Donor 653-03, 0–6 h): 95%
- inhibition at 24 h, 1 mmol/L ([2]; Donor 653-03, 24 h): 99%
- inhibition at 1 mmol/L ([3]; Donor 151-03, 0–6 h): 100%
- inhibition at 24 h, 1 mmol/L ([3]; Donor 151-03, 24 h): 100%
- inhibition at 1 mmol/L ([3]; Donor 422A-03, 0–6 h): 100%
- inhibition at 24 h, 1 mmol/L ([3]; Donor 422A-03, 24 h): 98%
- inhibition at 1 mmol/L ([3]; Donor 653-03, 0–6 h): 95%
- inhibition at 24 h, 1 mmol/L ([3]; Donor 653-03, 24 h): 96%
- inhibition at 1 mmol/L ([4]; Donor 151-03, 0–6 h): 85%
- inhibition at 24 h, 1 mmol/L ([4]; Donor 151-03, 24 h): 94%
- inhibition at 1 mmol/L ([4]; Donor 422A-03, 0–6 h): 90%
- inhibition at 24 h, 1 mmol/L ([4]; Donor 422A-03, 24 h): 94%
- inhibition at 1 mmol/L ([4]; Donor 653-03, 0–6 h): 94%
- inhibition at 24 h, 1 mmol/L ([4]; Donor 653-03, 24 h): 97%
SMILES: Nn1nnc2ccccc21 [ABT, 1-aminobenzotriazole]

SMILES: O=C1NC(=O)C(c2ccccc2)(c2ccccc2)N1 [Phenytoin, phenytoin]
- CYP3A4 Indmax ([5]; upcyte Donor 10-03, mean from two experiments): 14.6 fold
- CYP3A4 RIS ([5]; upcyte Donor 10-03): 1.970
- CYP3A4 % Rif ([5]; upcyte Donor 10-03): 45%
- CYP3A4 Indmax ([5]; upcyte Donor 151-03, mean from two experiments): 4.7 fold
- CYP3A4 RIS ([5]; upcyte Donor 151-03): 3.908
- CYP3A4 % Rif ([5]; upcyte Donor 151-03): 60%
- CYP3A4 Indmax ([5]; upcyte Donor 151-03, values of two experiments): 5.7 fold and 3.8 fold
- CYP3A4 Indmax ([5]; upcyte Donor 422A-03, mean from two experiments): 15.8 fold
- CYP3A4 RIS ([5]; upcyte Donor 422A-03): 0.464
- CYP3A4 % Rif ([5]; upcyte Donor 422A-03): 137%
- CYP3A4 Indmax ([5]; upcyte Donor 422A-03, values of two experiments): 14.8 fold and 16.9 fold
- CYP3A4 induction, % of rifampicin maximal induction ([5]; upcyte Donor 653-03): 120%
- CYP3A4 Ind50 ([5]; upcyte Donor 653-03, column headed Ind50 in Table 5): 59
- CYP3A4 Indmax ([5]; upcyte Donor 653-03, mean from two experiments): 6.3 fold
- CYP3A4 RIS ([5]; upcyte Donor 653-03): 4.341
- CYP3A4 Indmax ([5]; upcyte Donor 653-03, values of two experiments): 7.4 fold and 5.2 fold
- % Decrease in midazolam AUC [6]: 94%
- CYP2B6 Indmax ([7]; upcyte Donor 10-03): 3.6 fold
- CYP2B6 % PB ([7]; upcyte Donor 10-03): 88%
- CYP2B6 Indmax ([7]; upcyte Donor 151-03): 2.7 fold
- CYP2B6 % PB ([7]; upcyte Donor 151-03): 89%
- CYP2B6 Indmax ([7]; upcyte Donor 422A-03): 4.0 fold
- CYP2B6 % PB ([7]; upcyte Donor 422A-03): 48%
- CYP2B6 Indmax ([7]; upcyte Donor 653-03): 2.8 fold
- CYP2B6 % PB ([7]; upcyte Donor 653-03): 85%
